According to patent US20150072943A1, “MIXTURE OF POLAR G[…] USE IN THE TREATMENT OF PAIN AND COPD” (SANOFI, priority 2012, published 2015):

Key:
[1] = system: release of TNFalpha induced by E. Coli-LPS in human bronchus parenchyma tissue culture; experiment: LPS-induced TNFalpha release in human bronchus parenchyma tissue culture; type: cell-based
Source text: Human parenchymal lung tissue was obtained from patients undergoing resection for carcinoma at San Gerardo Hospital, Monza, Italy. Patients had not received radiotherapy or chronic treatment with steroids, opioids or chemotherapy. All specimens of parenchymal tissue were obtained from sites distant from the tumour. The study was approved by the institutional ethics committee of San Gerardo hospital Monza Italy and all volunteers gave informed consent. Resected lung tissue was dissected free of tumour, large airways, pleura and visible blood vessels and finely chopped using dissecting scissors, into 2 mm fragments during several washes with Kreb's buffer (([…]: NaCl 118.4, KCl 4.7, CaCl2 2.5, KH2PO4 1.2, NaHCO3 25, glucose 11.7). Six explants (total weight approx. 30 mg) were incubated in culture bioreactor (Synthecon/NASA USA) with RPMI-1640 medium containing 1% penicillin, 1% streptomycin, and 1% gentamycin at 37° C. in 5% carbon dioxide/air for 16 hours. Tissue was then either stimulated with 100 ng/ml LPS (Sigma-Aldrich) or maintained in cell culture media alone for 4 hours. For neutralization of TNF, tissue was incubated with 0.01, 0.1, or 1 μM of VB3323 for 1 hr prior to stimulation with 100 ng/ml LPS. […] The levels of TNFalpha in the supernatant were measured by enzyme-linked immunosorbent assay (ELISA) and the concentration corrected for tissue weight. […]

[2] = system: release of TNFalpha induced by E Coli LPS in mouse bronchus parenchyma tissue culture; experiment: LPS-induced TNFalpha release in mouse bronchus parenchyma tissue culture; type: cell-based
Method: The animals (BALB/c male mice, 20-22 g body weight) were sacrificed by cervical dislocation. The thoracic cage was opened cutting the ribs. Clamping the heart with surgical tweezers, lungs and heart were dissected from the thoracic cavity using surgical scissors and putted in cold Krebs solution ([…]: NaCl 118.4, KCl 4.7, CaCl2 2.5, KH2PO4 1.2, NaHCO3 25, glucose 11.7). Large airways and visible blood vessels were dissected. The lungs were divided in fragments of 30 mg (˜5 pieces/mouse) and finely chopped (six pieces of ˜2 mm3 each fragment) using a scalpel. Six explants (total weight 30 mg) were incubated per well (2.0 cm2) of a 24 well plate with 1 ml of RPMI-1640 medium (RPMI-1640+antibiotic antimycotic solution 100x, Sigma-Aldrich) at 37° C. in 5% carbon dioxide/air for 16 hours. Then the medium was replaced with fresh medium and the tissue was treated for 1 hour with compound. After one hour, the tissue was stimulated with 100 ng/ml LPS E. Coli 055:B5 (Sigma-Aldrich). 4 hour after LPS stimulation, supernatant was harvested and stored at −80° C. until ELISA analysis. Three of six tissue explants were fixed in 10% formalin buffer for histological/immunohistochemical analysis. The other three tissue explants were put in RNA-later buffer overnight and then stored at −80° C. […]

C[C@@H]1C[C@H]2[C@@H]3CCC4=CC(=O)C=C[C@]4(C)[C@@]3(F)[C@@H](O)C[C@]2(C)[C@@]1(O)C(=O)CO [Dexamethasone]
inhibition at 1 µM [1]: 69% | inhibition at 1 µM [2]: 67%
